Experimental data as given in ChEMBL document CHEMBL1255427, “Lack of a clinically relevant effect of an antacid on the pharmacokinetics of lersivirine” (Antimicrob Agents Chemother, 2010).

Key:
[1] = test system: Homo sapiens; test: Toxicity in healthy human assessed as serious adverse events at 750 mg coadministered with 20 ml of antacid; assay type: organism-based; details: in vivo
[2] = test system: Homo sapiens; test: Toxicity in healthy human assessed as death at 750 mg coadministered with 20 ml of antacid; assay type: organism-based; details: in vivo
[3] = species: Homo sapiens; test: Plasma concentration in healthy human plasma at 750 mg by HPLC-tandem mass spectrometry method; assay type: ADME, organism-based; details: in vivo
[4] = AUC (infinity) in healthy human plasma at 750 mg coadministered with 20 ml of antacid by HPLC-tandem mass spectrometry method; assay type: ADME, organism-based; parameters: dose 750 mg, time infinity
[5] = species: Homo sapiens; test: Toxicity in healthy human assessed as gastrointestinal tract related toxicity at 750 mg; assay type: organism-based; details: in vivo
[6] = Cmax in healthy human plasma at 750 mg after 24 hrs by HPLC-tandem mass spectrometry method; assay type: ADME, organism-based; parameters: dose 750 mg
[7] = species: Homo sapiens; test: Toxicity in healthy human assessed as serious adverse events at 750 mg; assay type: organism-based; details: in vivo
[8] = Half life in healthy human plasma at 750 mg coadministered with 20 ml of antacid by HPLC-tandem mass spectrometry method; assay type: ADME, organism-based
[9] = Half life in healthy human plasma at 750 mg by HPLC-tandem mass spectrometry method; assay type: ADME, organism-based
[10] = test system: Homo sapiens; test: Plasma concentration in healthy human plasma at 750 mg coadministered with 20 ml of antacid by HPLC-tandem mass spectrometry method; assay type: ADME, organism-based; details: in vivo
[11] = Tmax in healthy human plasma at 750 mg coadministered with 20 ml of antacid by HPLC-tandem mass spectrometry method; assay type: ADME, organism-based
[12] = species: Homo sapiens; test: Toxicity in healthy human assessed as death at 750 mg; assay type: organism-based; details: in vivo
[13] = Tmax in healthy human plasma at 750 mg by HPLC-tandem mass spectrometry method; assay type: ADME, organism-based
[14] = test system: Homo sapiens; test: Toxicity in healthy human assessed as gastrointestinal tract related toxicity at 750 mg coadministered with 20 ml of antacid; assay type: organism-based; details: in vivo
[15] = AUC (infinity) in healthy human plasma at 750 mg by HPLC-tandem mass spectrometry method; assay type: ADME, organism-based; parameters: dose 750 mg, time infinity
[16] = Cmax in healthy human plasma at 750 mg after 24 hrs coadministered with 20 ml of antacid by HPLC-tandem mass spectrometry method; assay type: ADME, organism-based; parameters: dose 750 mg

What does the source list for CCc1nn(CCO)c(CC)c1Oc1cc(C#N)cc(C#N)c1 [LERSIVIRINE]?
Activity [1]: Non-toxic; Activity [2]: Non-toxic; Cp [3]: 83.41 ng/mL; AUC(0-inf) [4]: 11200 ng·h/mL; Activity [5]: Toxic; Cmax [6]: 1520 ng/mL; Activity [7]: Non-toxic; half-life [8]: 6.22 h; half-life [9]: 6.91 h; Cp [10]: 64.41 ng/mL; Tmax [11]: 2 h; Activity [12]: Non-toxic; Tmax [13]: 5 h; Activity [14]: Toxic; AUC(0-inf) [15]: 11000 ng·h/mL; Cmax [16]: 1450 ng/mL
